Data published in patent publication US20230393140A1, “BINDING ASSAYS INVOLVING A PLURALITY OF SYNTHETIC COMPOUNDS, TARGETS, AND COUNTER TARGETS” (SRI International, priority 2020, published 2023).
Numbered stars: 1 amine (or outer) side, 2 acyl side, 3 side chain; on linkers, the order of the positions; unused ones are H or OH. Square brackets hold non-standard residues; d marks the D form. Peptide text beside a SMILES is read from it. * marks the point of attachment. 5FAM = O=C1OC2(c3ccc(O)cc3Oc3cc(O)ccc32)c2ccc(C(=O)*)cc21; NHCH2C6H4(4-CH2CONH2) = NC(=O)Cc1ccc(CN*)cc1; X1 = O=C(Cc1ccc(CN[*:1])cc1)[*:2]

Target: TNFα (Homo sapiens, UniProt P01375)
Sequence (P01375 77-233 limits assumed): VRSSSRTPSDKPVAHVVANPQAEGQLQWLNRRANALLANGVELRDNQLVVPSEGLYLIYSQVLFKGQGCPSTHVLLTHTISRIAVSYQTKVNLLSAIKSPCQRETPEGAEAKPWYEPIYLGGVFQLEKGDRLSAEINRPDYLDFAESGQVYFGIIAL
Assay: MST binding affinity of resynthesized NNP hits to TNFα
Set-up: purchased R&D Systems, Inc. 210-TA/CF
Settings: read-out: KD (nM) [95% conf. int], NNP2 library hit, target TNFα, one-site binding model
Experimental: Hit binding affinity to various targets were determined using Microscale Thermophoresis (MST). MST experiments were performed on a Monolith NT.115pico (NanoTemper Technologies GmbH, Munich, Germany). Measurements were performed at room temperature, in triplicate with incubation periods of 15, 30 and 45 minutes. […] Targets were labeled using Nanotemper Monolith 2nd Generation Protein Labeling Kits. RED-MALEIMIDE (Maleimide-647-dye) labeling kit was used for K-Ras and RED-NHS (NHS-647-dye) labeling kit was used for IL-6, IL-6R, TNFα and ASGPR. The buffer for the ASGPR contained 20 mM HEPES pH 7.4, 150 mM NaCl, 10 mM MgCl2, 2 mM CaCl2, 0.05% Pluronic F-127, and 1 mM DTT; for IL-6 contained 20 mM HEPES pH 7.4, 150 mM KCl, 10 mM MgCl2, and 0.1% Pluronic F-127; for the soluble IL-6 receptor 20 mM HEPES pH 7.4, 150 mM NaCl, 10 mM MgCl2, and 0.05% Tween-20; for K-Ras 20 mM HEPES pH 7.4, 150 mM NaCl, 10 mM MgCl2, 0.05% Tween-20 and 1 mM DTT; for TNFα 10 mM HEPES pH 7.4, 150 mM NaCl, 10 mM MgCl2, 0.05% Polysorbate-20. Triplicate data was analyzed using MO.AffinityAnalysis software (NanoTemper Technologies GmbH).

SMILES | Kd [nM]
CC(C)C[C@H](NC(=O)[C@@H](CCCNC(=N)N)NC(=O)[C@@H](Cc1c[nH]c2ccccc12)NC(=O)Cc1ccc(CNC(=O)[C@H](CC(C)C)NC(=O)[C@@H](CCCCN)NC(=O)[C@@H](CC(C)C)NC(=O)Cc2ccc(CNC(=O)[C@H](CC(C)C)NC(=O)[C@@H](CCCNC(=N)N)NC(=O)[C@@H](CC(C)C)NC(=O)Cc3ccc(CNC(=O)[C@H](Cc4ccccc4)NC(=O)[C@@H](CC(C)C)NC(=O)[C@H](NC(=O)c4ccc5c(c4)C(=O)OC54c5ccc(O)cc5Oc5cc(O)ccc54)[C@H](C)O)cc3)cc2)cc1)C(=O)NCc1ccc(CC(=O)N[C@H](C)C(=O)N[C@H](CCCCN)C(=O)N[C@@H](Cc2ccccc2)C(=O)NCc2ccc(CC(=O)N[C@H](CCC(=O)O)C(=O)N[C@H](CO)C(=O)N[C@H](C(=O)NCc3ccc(CC(=O)N4CCC[C@@H]4C(=O)N[C@@H](C(=O)NCC(=O)NCc4ccc(CC(=O)N[C@H](CCC(=O)O)C(=O)N[C@H](Cc5ccc(O)cc5)C(=O)N[C@@H](Cc5ccccc5)C(=O)NCc5ccc(CC(=O)N[C@H](Cc6ccc(O)cc6)C(=O)N[C@H](CCCNC(=N)N)C(=O)N[C@@H](Cc6ccccc6)C(=O)NCc6ccc(CC(N)=O)cc6)cc5)cc4)C(C)C)cc3)C(C)C)cc2)cc1 [TNF-31-4] (5FAM-[dT][dL]F[X1][dL][dR]L[X1][dL][dK]L[X1][dW][dR]L[X1][dA][dK]F[X1][dE][dS]V[X1][dP][dV]G[X1][dE][dY]F[X1][dY][dR]F-{NHCH2C6H4(4-CH2CONH2)}) | 33
CC(C)C[C@H](NC(=O)[C@@H](CCCNC(=N)N)NC(=O)CNC(=O)Cc1ccc(CNC(=O)[C@H](CC(C)C)NC(=O)[C@H](NC(=O)[C@@H](CCCCN)NC(=O)c2ccc3c(c2)C(=O)OC32c3ccc(O)cc3Oc3cc(O)ccc32)C(C)C)cc1)C(=O)NCc1ccc(CC(=O)N[C@H](Cc2ccccc2)C(=O)N[C@H](CCC(=O)O)C(=O)N[C@H](C(=O)NCc2ccc(CC(=O)N3CCC[C@@H]3C(=O)N[C@H](CCCNC(=N)N)C(=O)N[C@H](C(=O)NCc3ccc(CC(=O)N[C@H](C)C(=O)N[C@H](CCCCN)C(=O)N[C@@H](Cc4ccccc4)C(=O)NCc4ccc(CC(=O)N[C@H](CCC(=O)O)C(=O)N[C@H](CO)C(=O)N[C@H](C(=O)NCc5ccc(CC(=O)N6CCC[C@@H]6C(=O)N[C@@H](C(=O)NCC(=O)NCc6ccc(CC(=O)N[C@@H](C(=O)N[C@H](Cc7c[nH]cn7)C(=O)N[C@@H](CC(C)C)C(=O)NCc7ccc(CC(=O)N[C@H](Cc8ccc(O)cc8)C(=O)N[C@H](CCCNC(=N)N)C(=O)N[C@@H](Cc8ccccc8)C(=O)NCc8ccc(CC(N)=O)cc8)cc7)[C@H](C)O)cc6)C(C)C)cc5)C(C)C)cc4)cc3)C(C)C)cc2)C(C)C)cc1 [TNF-31-5] (5FAM-[dK][dV]L[X1]G[dR]L[X1][dF][dE]V[X1][dP][dR]V[X1][dA][dK]F[X1][dE][dS]V[X1][dP][dV]G[X1][dT][dH]L[X1][dY][dR]F-{NHCH2C6H4(4-CH2CONH2)}) | 24
CC(C)C[C@H](NC(=O)[C@@H](CCCNC(=N)N)NC(=O)[C@@H](C)NC(=O)Cc1ccc(CNC(=O)[C@H](Cc2ccccc2)NC(=O)[C@@H](CCCNC(=N)N)NC(=O)[C@@H](CC(N)=O)NC(=O)Cc2ccc(CNC(=O)[C@H](Cc3ccccc3)NC(=O)[C@@H](CCCCN)NC(=O)[C@@H](C)NC(=O)Cc3ccc(CNC(=O)[C@H](C)NC(=O)[C@@H](CCCNC(=N)N)NC(=O)[C@@H](Cc4ccccc4)NC(=O)Cc4ccc(CNC(=O)[C@H](CC(C)C)NC(=O)[C@@H](CCCCN)NC(=O)[C@@H](CC(C)C)NC(=O)Cc5ccc(CNC(=O)[C@H](CC(C)C)NC(=O)[C@@H](CCCNC(=N)N)NC(=O)[C@@H](CC(C)C)NC(=O)Cc6ccc(CNC(=O)[C@H](CC(C)C)NC(=O)[C@@H](CC(C)C)NC(=O)[C@@H](Cc7ccc(O)cc7)NC(=O)c7ccc8c(c7)C(=O)OC87c8ccc(O)cc8Oc8cc(O)ccc87)cc6)cc5)cc4)cc3)cc2)cc1)C(=O)NCc1ccc(CC(=O)N[C@H](Cc2c[nH]c3ccccc23)C(=O)N[C@H](CCCCN)C(=O)N[C@@H](CC(C)C)C(=O)NCc2ccc(CC(=O)N3CCC[C@@H]3C(=O)N[C@H](C)C(=O)N[C@@H](C)C(=O)NCc3ccc(CC(N)=O)cc3)cc2)cc1 [TNF-31-14] (5FAM-[dY][dL]L[X1][dL][dR]L[X1][dL][dK]L[X1][dF][dR]A[X1][dA][dK]F[X1][dN][dR]F[X1][dA][dR]L[X1][dW][dK]L[X1][dP][dA]A-{NHCH2C6H4(4-CH2CONH2)}) | 35
CC(C)C[C@H](NC(=O)[C@@H](CCCNC(=N)N)NC(=O)[C@@H](CCC(=O)O)NC(=O)Cc1ccc(CNC(=O)[C@H](C)NC(=O)[C@@H](CCCCN)NC(=O)[C@@H](Cc2ccc(O)cc2)NC(=O)Cc2ccc(CNC(=O)[C@H](C)NC(=O)[C@@H](CCCNC(=N)N)NC(=O)[C@@H](Cc3ccccc3)NC(=O)Cc3ccc(CNC(=O)[C@H](CC(C)C)NC(=O)[C@H](NC(=O)[C@@H](CCCNC(=N)N)NC(=O)Cc4ccc(CNC(=O)[C@H](CC(C)C)NC(=O)[C@@H](CCCNC(=N)N)NC(=O)[C@@H](CC(C)C)NC(=O)Cc5ccc(CNC(=O)[C@H](CC(C)C)NC(=O)[C@H](NC(=O)[C@@H](CCCCN)NC(=O)c6ccc7c(c6)C(=O)OC76c7ccc(O)cc7Oc7cc(O)ccc76)C(C)C)cc5)cc4)C(C)C)cc3)cc2)cc1)C(=O)NCc1ccc(CC(=O)N2CCC[C@@H]2C(=O)N[C@@H](C(=O)NCC(=O)NCc2ccc(CC(=O)N[C@H](CCCCN)C(=O)N[C@H](Cc3ccccc3)C(=O)N[C@@H](Cc3ccccc3)C(=O)NCc3ccc(CC(=O)N[C@H](Cc4c[nH]cn4)C(=O)N[C@H](CCC(=O)O)C(=O)N[C@H](C(=O)NCc4ccc(CC(N)=O)cc4)C(C)C)cc3)cc2)C(C)C)cc1 [TNF-31-15] (5FAM-[dK][dV]L[X1][dL][dR]L[X1][dR][dV]L[X1][dF][dR]A[X1][dY][dK]A[X1][dE][dR]L[X1][dP][dV]G[X1][dK][dF]F[X1][dH][dE]V-{NHCH2C6H4(4-CH2CONH2)}) | 23
CC(C)C[C@H](NC(=O)[C@@H](CCC(=O)O)NC(=O)[C@H]1CCCN1C(=O)Cc1ccc(CNC(=O)[C@H](CC(C)C)NC(=O)[C@@H](CCCCN)NC(=O)[C@@H](Cc2ccccc2)NC(=O)Cc2ccc(CNC(=O)[C@@H](NC(=O)[C@@H](CCC(=O)O)NC(=O)[C@@H](Cc3ccccc3)NC(=O)Cc3ccc(CNC(=O)[C@H](CC(C)C)NC(=O)[C@@H](CCCNC(=N)N)NC(=O)[C@@H](CC(C)C)NC(=O)Cc4ccc(CNC(=O)[C@H](CC(C)C)NC(=O)[C@H](NC(=O)[C@@H](CCCCN)NC(=O)c5ccc6c(c5)C(=O)OC65c6ccc(O)cc6Oc6cc(O)ccc65)C(C)C)cc4)cc3)C(C)C)cc2)cc1)C(=O)NCc1ccc(CC(=O)N[C@H](Cc2ccccc2)C(=O)N[C@@H](C(=O)N[C@@H](C)C(=O)NCc2ccc(CC(=O)N[C@H](Cc3c[nH]cn3)C(=O)N[C@H](CCC(=O)O)C(=O)N[C@@H](CC(C)C)C(=O)NCc3ccc(CC(=O)N[C@H](CCC(=O)O)C(=O)N[C@H](Cc4ccc(O)cc4)C(=O)N[C@@H](Cc4ccccc4)C(=O)NCc4ccc(CC(=O)N[C@@H](C(=O)N[C@H](CO)C(=O)N[C@H](C(=O)NCc5ccc(CC(N)=O)cc5)C(C)C)[C@H](C)O)cc4)cc3)cc2)[C@H](C)O)cc1 [TNF-31-16] (5FAM-[dK][dV]L[X1][dL][dR]L[X1][dF][dE]V[X1][dF][dK]L[X1][dP][dE]L[X1][dF][dT]A[X1][dH][dE]L[X1][dE][dY]F[X1][dT][dS]V-{NHCH2C6H4(4-CH2CONH2)}) | 180
